Consider 27 compounds from patent US9481670B2, “Triazine compounds” (Sphaera Pharma PTE. Ltd., priority 2011, dated 2016).

The target in this assay is T1, PI3K alpha (Homo sapiens, UniProt P42336).
T1 construct: purchased Millipore Upstate
T1 sequence (P42336 whole entry): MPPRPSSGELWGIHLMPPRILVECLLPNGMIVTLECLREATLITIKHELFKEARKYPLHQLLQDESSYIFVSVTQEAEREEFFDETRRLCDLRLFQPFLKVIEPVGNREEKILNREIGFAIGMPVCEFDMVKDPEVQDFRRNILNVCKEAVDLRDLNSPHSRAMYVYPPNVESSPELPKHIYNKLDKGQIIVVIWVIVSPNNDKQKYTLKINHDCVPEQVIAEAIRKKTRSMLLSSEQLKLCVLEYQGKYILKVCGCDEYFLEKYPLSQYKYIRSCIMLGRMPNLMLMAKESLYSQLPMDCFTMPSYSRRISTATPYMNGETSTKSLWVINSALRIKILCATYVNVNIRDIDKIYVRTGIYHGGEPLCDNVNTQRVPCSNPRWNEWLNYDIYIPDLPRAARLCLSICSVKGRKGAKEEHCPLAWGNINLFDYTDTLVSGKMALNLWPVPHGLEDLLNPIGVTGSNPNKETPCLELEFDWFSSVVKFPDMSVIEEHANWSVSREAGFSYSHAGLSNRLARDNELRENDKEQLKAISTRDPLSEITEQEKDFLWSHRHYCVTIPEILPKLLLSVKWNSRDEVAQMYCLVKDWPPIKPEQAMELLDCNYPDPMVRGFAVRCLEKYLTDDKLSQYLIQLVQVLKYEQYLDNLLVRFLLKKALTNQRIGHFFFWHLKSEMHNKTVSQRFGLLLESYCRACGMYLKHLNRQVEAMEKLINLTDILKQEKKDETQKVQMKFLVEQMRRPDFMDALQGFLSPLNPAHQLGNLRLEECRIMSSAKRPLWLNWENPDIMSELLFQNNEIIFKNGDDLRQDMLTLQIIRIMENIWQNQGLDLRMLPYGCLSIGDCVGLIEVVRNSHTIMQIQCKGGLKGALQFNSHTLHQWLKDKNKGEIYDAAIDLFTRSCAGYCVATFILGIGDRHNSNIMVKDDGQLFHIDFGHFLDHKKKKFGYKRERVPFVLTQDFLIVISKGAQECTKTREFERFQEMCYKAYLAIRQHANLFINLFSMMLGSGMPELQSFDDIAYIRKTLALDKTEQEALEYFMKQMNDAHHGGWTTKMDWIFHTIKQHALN
T1 sequence (P27986 whole entry partner): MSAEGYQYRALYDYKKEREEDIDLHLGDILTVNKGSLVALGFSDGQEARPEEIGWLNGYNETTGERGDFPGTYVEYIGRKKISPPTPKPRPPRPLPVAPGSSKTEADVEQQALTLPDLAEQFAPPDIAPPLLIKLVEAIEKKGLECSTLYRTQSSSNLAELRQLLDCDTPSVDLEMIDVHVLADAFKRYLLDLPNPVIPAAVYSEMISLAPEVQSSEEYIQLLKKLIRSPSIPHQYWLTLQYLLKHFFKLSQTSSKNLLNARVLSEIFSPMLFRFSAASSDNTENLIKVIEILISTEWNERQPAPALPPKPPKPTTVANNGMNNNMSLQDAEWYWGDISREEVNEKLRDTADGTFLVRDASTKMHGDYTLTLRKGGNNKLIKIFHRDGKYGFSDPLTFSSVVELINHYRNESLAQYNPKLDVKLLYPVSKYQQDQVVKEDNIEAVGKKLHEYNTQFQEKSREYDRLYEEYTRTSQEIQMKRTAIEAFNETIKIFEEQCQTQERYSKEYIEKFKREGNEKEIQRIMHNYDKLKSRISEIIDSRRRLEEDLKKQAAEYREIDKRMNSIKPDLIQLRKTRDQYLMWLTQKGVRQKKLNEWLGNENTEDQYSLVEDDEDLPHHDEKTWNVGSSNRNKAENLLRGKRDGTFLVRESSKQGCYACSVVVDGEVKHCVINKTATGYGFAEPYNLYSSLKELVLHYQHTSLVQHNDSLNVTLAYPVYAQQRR
The assay can be described thus: P110 Alpha TR-FRET Assay (PI3K alpha kinase assay, HTRF Transcreener ADP Assay). It is filed as biochemical. The following applies: PI3K (WT). In a few lines: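 HTRF Transcreener ADP read-out of ADP formed by PI3K (50 ng enzyme) in 50 mM HEPES pH 7.5, 5 mM MgCl2, 1 mM DTT, 30 μM Na3VO4. Compound preincubated with enzyme 20 min; reaction started with 10 μM ATP and 5 μM PIP2, run 20 min, then ADP-d2/anti-ADP cryptate detection for 1 h.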
The compound `CNC(=O)CNc1nc(-c2cccc(O)c2)nc(N2CCOCC2)n1` [Compound 1168, 2-((4-(3-hydroxyphenyl)-6-morpholino-1,3,5-triazin-2-yl)amino)-N-methylacetamide] returned an IC50 below 5 µM.

With `O=C(O)CNc1nc(-c2cccc([N+](=O)[O-])c2)nc(N2CCOCC2)n1` [Compound 1169, 2-((4-morpholino-6-(3-nitrophenyl)-1,3,5-triazin-2-yl)amino)acetic acid], the 50% inhibitory concentration (IC50) was above 5 µM.

`O=C(c1cccc(Nc2nc(-c3cccc4[nH]ncc34)nc(N3CCOCC3)n2)c1)N1CCNCC1` [Compound 1171, (3-((4-(1H-indazol-4-yl)-6-morpholino-1,3,5-triazin-2-yl)amino)phenyl)(piperazin-1-yl)methanone] showed an IC50 below 5 µM.

As for `CN1CCN(C(=O)c2cccc(Nc3nc(-c4cccc5[nH]ncc45)nc(N4CCOCC4)n3)c2)CC1` [Compound 1172, (3-((4-(1H-indazol-4-yl)-6-morpholino-1,3,5-triazin-2-yl)amino)phenyl)(4-methylpiperazin-1-yl)methanone], the IC50 is below 5 µM.

`O=C(c1cccc(Nc2nc(-c3cccc4[nH]ncc34)nc(N3CCOCC3)n2)c1)N1CCOCC1` [Compound 1173, (3-((4-(1H-indazol-4-yl)-6-morpholino-1,3,5-triazin-2-yl)amino)phenyl)(morpholino)methanone] gave a concentration for half-maximal inhibition (IC50) below 5 µM.

On to `CCOc1ccc(NC(=O)C2CCN(c3nc(-c4cccc5[nH]ncc45)nc(N4CCOCC4)n3)C2)cc1` (stereo not drawn) [Compound 1174, N-(4-23-ethoxyphenyl)-1-12-[4-1-(1H-indazol-4-yl)-6-5-(morpholin-4-yl)-1,3,5-triazin-2-yl]pyrrolidine-3-carboxamide], for which the half-maximal inhibitory concentration (IC50) is below 5 µM.

As for `CC(C)C(Nc1nc(-c2cccc(O)c2)nc(N2CCOCC2)n1)C(=O)O` (stereo not drawn) [Compound 1175, 2-((4-(3-hydroxyphenyl)-6-morpholino-1,3,5-triazin-2-yl)amino)-3-methylbutanoic acid], the concentration for half-maximal inhibition (IC50) is below 5 µM.

The compound `O=C(O)CNc1nc(-c2ccc(O)nc2)nc(N2CCOCC2)n1` [Compound 1176, 2-((4-(6-hydroxypyridin-3-yl)-6-morpholino-1,3,5-triazin-2-yl)amino)acetic acid] had an IC50 above 5 µM.

In turn, `CNC(=O)c1ccc(C)c(Nc2nc(-c3cccc4[nH]ncc34)nc(N3CCOCC3)n2)c1` [Compound 1177, 3-((4-(1H-indazol-4-yl)-6-morpholino-1,3,5-triazin-2-yl)amino)-N,4-dimethylbenzamide] returned an IC50 below 5 µM.

`Cc1ccc(C(=O)N(C)C)cc1Nc1nc(-c2cccc3[nH]ncc23)nc(N2CCOCC2)n1` [Compound 1178, 3-((4-(1H-indazol-4-yl)-6-morpholino-1,3,5-triazin-2-yl)amino)-N,N,4-trimethylbenzamide] had an IC50 below 5 µM.

`O=C(O)CNc1nc(-c2ccc(F)nc2)nc(N2CCOCC2)n1` [Compound 1179, 2-((4-(6-fluoropyridin-3-yl)-6-morpholino-1,3,5-triazin-2-yl)amino)acetic acid] had a half-inhibitory concentration (IC50) above 5 µM.

Compound `CN(C)C(=O)N1CCN(Cc2nc(-c3cccc4[nH]ncc34)nc(N3CCOCC3)n2)CC1` [Compound 1180, 4-((4-(1H-1-indazol-4-yl)-6-morpholino-1,3,5-triazin-2-yl)methyl)-N,N-dimethylpiperazine-1-carboxamide] showed an IC50 below 5 µM.

Compound `NC(=O)CNc1nc(-c2cccc(O)c2)nc(N2CCOCC2)n1` [Compound 1181, 2-((4-(3-hydroxyphenyl)-6-morpholino-1,3,5-triazin-2-yl)amino)acetamide] had a half-maximal inhibitory concentration (IC50) below 5 µM.

For the compound `NC(=O)c1cccn1-c1nc(-c2cccc3[nH]ncc23)nc(N2CCOCC2)n1` [Compound 1182, 1-8-[4-1-(1H-indazol-4-yl)-6-5-(morpholin-4-yl)-1,3,5-triazin-2-yl]-1H-pyrrole-2-carboxamide], the IC50 was below 5 µM.

`COc1cccc(-c2nc(NCC(=O)O)nc(N3CCOCC3)n2)c1` [Compound 1183, 2-((4-(3-methoxyphenyl)-6-morpholino-1,3,5-triazin-2-yl)amino)acetic acid]: the IC50 was above 5 µM.

`O=C(O)CNc1nc(-c2cccc(NO)c2)nc(N2CCOCC2)n1` [Compound 1184, 2-((4-(3-(hydroxyamino)phenyl)-6-morpholino-1,3,5-triazin-2-yl)amino)acetic acid] registered an IC50 above 5 µM.

Compound `CN(C)C(=O)CNc1nc(-c2ccc(N)cc2)nc(N2CCOCC2)n1` [Compound 1185, 2-((4-(4-aminophenyl)-6-morpholino-1,3,5-triazin-2-yl)amino)-N,N-dimethylacetamide] displayed an IC50 above 5 µM.

`Cc1c(Nc2nc(-c3cccc4[nH]ncc34)nc(N3CCOCC3)n2)cccc1C(N)=O` [Compound 1186, 3-((4-(1H-indazol-4-yl)-6-morpholino-1,3,5-triazin-2-yl)amino)-2-methylbenzamide] showed a half-inhibitory concentration (IC50) below 5 µM.

In turn, `CC(Nc1nc(-c2cccc(O)c2)nc(N2CCOCC2)n1)C(=O)O` (stereo not drawn) [Compound 1187, 2-((4-(3-hydroxyphenyl)-6-morpholino-1,3,5-triazin-2-yl)amino)propanoic acid] yielded an IC50 below 5 µM.

`CC(C)(Nc1nc(-c2cccc(O)c2)nc(N2CCOCC2)n1)C(=O)O` [Compound 1188, 2-((4-(3-hydroxyphenyl)-6-morpholino-1,3,5-triazin-2-yl)amino)-2-methylpropanoic acid] returned a half-maximal inhibitory concentration (IC50) below 5 µM.

Turning to `CN(C)C(=O)c1cccc(Nc2nc(-c3cccc4[nH]ncc34)nc(N3CCOCC3)n2)c1` [Compound 1190, 3-((4-(1H-indazol-4-yl)-6-morpholino-1,3,5-triazin-2-yl)amino)-N,N-dimethylbenzamide], the IC50 was below 5 µM.

In the case of `CS(=O)(=O)N1CCN(C(=O)CCNc2nc(-c3cccc4[nH]ncc34)nc(N3CCOCC3)n2)CC1` [Compound 1191, 3-((4-(1H-indazol-4-yl)-6-morpholino-1,3,5-triazin-2-yl)amino)-1-(4-(methylsulfonyl)piperazin-1-yl)propan-1-one], the half-maximal inhibitory concentration (IC50) was below 5 µM.

Compound `CN(CC(=O)O)c1nc(-c2cccc(O)c2)nc(N2CCOCC2)n1` [Compound 1192, 2-((4-(3-hydroxyphenyl)-6-morpholino-1,3,5-triazin-2-yl)(methyl)amino)acetic acid] displayed a half-inhibitory concentration (IC50) below 5 µM.

As for `NC(=O)Cc1ccccc1Nc1nc(-c2cccc3[nH]ncc23)nc(N2CCOCC2)n1` [Compound 1194, 2-(2-((4-(1H-indazol-4-yl)-6-morpholino-1,3,5-triazin-2-yl)amino)phenyl)acetamide], the IC50 was below 5 µM.

`NC(=O)Cc1cccc(Nc2nc(-c3cccc4[nH]ncc34)nc(N3CCOCC3)n2)c1` [Compound 1195, 2-(3-((4-(1H-indazol-4-yl)-6-morpholino-1,3,5-triazin-2-yl)amino)phenyl)acetamide] gave an IC50 below 5 µM.

Turning to `O=C1NCC2CN(c3nc(-c4cccc5[nH]ncc45)nc(N4CCOCC4)n3)CCC12` (stereo not drawn) [Compound 1196, 5-8-[4-1-(1H-indazol-4-yl)-6-5-(morpholin-4-yl)-1,3,5-triazin-2-yl]-octahydro-1H-pyrrolo[3,4-c]pyridin-1-one], the IC50 was below 5 µM.

`COC(=O)CNc1nc(-c2cccc(N)c2)nc(N2CCOCC2)n1` [Compound 1197, methyl 2-((4-(3-aminophenyl)-6-morpholino-1,3,5-triazin-2-yl)amino)acetate] showed a half-inhibitory concentration (IC50) below 5 µM.
